How the values were obtained:
[1] = test system: conscious hypertensive DOCA-salt rats; experiment: Acute oral administration: MABP and HR recording in conscious freely moving DOCA-salt rats; type: in vivo, rat; details: single oral administration
Description: Male deoxycorticosterone acetate (DOCA)-salt rats weighing 250 to 350 g were purchased from Charles River Laboratories (L'Arbresle, France). Animals were randomly assigned in each group with allocation concealment, and blinding procedures were used with coding systemAnimal care and surgical procedures were performed according to the Directive 2010/63/EU. The project was submitted to the appropriate ethics committee and authorization was obtained: 30 CEEA No 59, reference number 01962.01. Animals were kept under artificial light (12 h light/12 h dark cycle) with ad libitum access to a standard diet and saline water (0.9% NaCl, 0.2% KCl).
Male DOCA-salt rats were anesthetized with 3% isoflurane (Iso-Vet®, Piramal, UK) for induction and 1.5-2% isoflurane for maintenance. A catheter (0.011″X.024″X.0065″) was inserted into the right femoral artery to monitor mean arterial blood pressure (MABP) and heart rate (HR). The catheters were tunneled subcutaneously to exit from the neck. Animals were allowed to recover from surgery for at least 48 h before MABP recording. Baseline MABP was recorded before drug administration during 30 minutes to 1 hour. One hour after the start of BP recording, firibastat (30 mg/kg), enalapril (5 or 10 mg/kg) and HCTZ (5 or 10 mg/kg) alone or in combination at different doses were administered to the conscious unrestrained rats by oral route. After compound administration, BP was monitored for 6 hours. MABP was calculated with the […] system (Phymep, Paris, France), consisting of a MatLab hardware unit and CHART software, running on a Macintosh computer. MABP and HR measurements were calculated by the BP signal.

[2] = test system: conscious hypertensive deoxycorticosterone acetate (DOCA) salt rats; details: oral administrations, 15 to 150 mg/kg; cited from earlier work
[3] = test system: spontaneously hypertensive rats (SHRs); details: oral administrations, 15 to 150 mg/kg; cited from earlier work
[4] = test system: hypertensive patients; details: monotherapy; mild to moderate hypertensive patients and diverse high-risk hypertensive population; cited from earlier work

SMILES: NS(=O)(=O)c1cc2c(cc1Cl)NCNS2(=O)=O [HCTZ, hydrochlorothiazide]
- change in BP ([1]; HCTZ 10 mg/kg alone): did not induce any significant change in BP

SMILES: CCOC(=O)[C@H](CCc1ccccc1)N[C@@H](C)C(=O)N1CCC[C@H]1C(=O)O [enalapril]
- change in BP ([1]; enalapril 10 mg/kg alone): did not induce any significant change in BP

SMILES: N[C@@H](CCS(=O)(=O)O)CSSC[C@@H](N)CCS(=O)(=O)O [firibastat, (3S,3S′) 4,4′-disulfanediylbis(3-aminobutane 1-sulfonic acid)]
- decrease in BP (change in MABP from baseline) ([1]; firibastat 30 mg/kg alone, 5 h post-dosing): −35.4±5.2 mmHg
- effect on BP [2]: dose-dependent decrease in BP
- effect on BP [3]: dose-dependent decrease in BP
- effect on BP [4]: lower BP
